Results on 27 molecules are retold here after patent publication US6506747B1, “Substituted 1-(4-aminophenyl)pyrazoles and their use as anti-inflammatory agents” (Boehringer Ingelheim Pharmaceuticals, Inc., priority 1998, dated 2003).

Broadly, the IC50 is the concentration needed to halve the response being measured. For orientation: melting point means the temperature of the solid-liquid transition.

The first data set relates to IL-2 promoter/enhancer. Kind of data set: IL-2 promoter assay (luciferase reporter in Jurkat J.1F/C6 cells). Format: cell-based. The following applies: Homo sapiens; J.1F/C6 Jurkat cell line, IL-2 promoter luciferase reporter; read-out: IC50, inhibition of luciferase activity induced by ionomycin and PMA. An excerpt:
The IL-2 promoter assay measures transcriptional activation of a luciferase reporter gene which has been placed under control of the IL-2 promoter/enhancer. All the known regulatory features of the IL2gene are contained within a 300 bp sequence immediately upstream of the open reading frame. The region −328 to +35 relative to the transcription start site of the IL-2 gene is obtained by RT-PCR of human genomic DNA and is subcloned into the promoterless luciferase reporter vector pGL2-Basic (Promega). The resulting construct, pIL2P-luc, and a vector containing a neomycin resistance gene, pcDNA/Neo (Invitrogen), are linearized and stably transfected into Jurkat cells (a human T cell line) by electroporation. […] For screening compounds, the cells are pelleted by centrifugation, washed once with PBS, resuspended in RPMI (phenol red-free) containing 5% FBS, and dispensed into 96-well, white microtiter plates (Packard) at 50,000 cells/well. The cells are pre-incubated with compounds (1 μg/ml) for 15 min prior to addition of ionomycin (1 μg/ml) and PMA (10 ng/ml) in a final volume of 100 μl. Following a 5 hr incubation at 37° C. in a humidified incubator, 100 μl of Luc-Lite lysis buffer/luciferase assay buffer (Promega) is added and luminescence measured using a Packard TopCount scintillation counter/luminometer.
Consider `C=CC[C@@H]1/C=C(\C)C[C@H](C)C[C@H](OC)[C@H]2O[C@@](O)(C(=O)C(=O)N3CCCC[C@H]3C(=O)O[C@H](/C(C)=C/[C@@H]3CC[C@@H](O)[C@H](OC)C3)[C@H](C)[C@@H](O)CC1=O)[C@H](C)C[C@@H]2OC` [FK506], for which the IC50 stood at 0.3 nM.

System in a further data set: not given
Assay: not given
Details: not given
In turn, `O=C(Nc1ccc(-n2nc(C(F)(F)F)cc2C(F)(F)F)cc1)c1ccccc1` [Example 538] gave a melting point of 243 to 245 °C.
Same read-out and setting: the value for `CC(=O)Nc1ccc(-n2nc(C(F)(F)F)cc2C(F)(F)F)cc1` [Example 547] was 175 to 176 °C; that for `FC(F)(F)c1cc(C(F)(F)F)n(-c2ccc(NCc3ccc(Cl)cc3)cc2)n1` [Example 548] was 89 to 90 °C.
Same read-out and setting: next, `CCCCCC(=O)Nc1ccc(-n2nc(C(F)(F)F)cc2C(F)(F)F)cc1` [Example 584]: 107 to 109 °C; `CCNc1ccc(-n2nc(C(F)(F)F)cc2C(F)(F)F)cc1` [Example 613]: 54 °C.
The same measure, in the same setting: next, `FC(F)(F)c1cc(C(F)(F)F)n(-c2ccc(Nc3nc4ccccc4[nH]3)cc2)n1` [Example 644]: 220 to 222 °C; `FC(F)(F)c1cc(C(F)(F)F)n(-c2ccc(Nc3nccc4ccccc34)cc2)n1` [Example 648]: 205 to 220 °C.
`FC(F)(F)c1cc(Cl)n(-c2ccc(Nc3nccc4ccccc34)cc2)n1` [Example 683] yielded a melting point of 244 to 254 °C.
On the same count and under the same terms, next, `O=C(Nc1ccc(-n2nc(C(F)(F)F)cc2C(F)(F)F)cc1)C1CCCNC1` (stereo not drawn) [Example 688]: 231 to 233 °C; `O=C(Nc1ccc(-n2nc(C(F)(F)F)cc2C(F)(F)F)cc1)c1cnccn1` [Example 698]: 188 to 189 °C; `O=C(Nc1ccc(-n2nc(C(F)(F)F)cc2C(F)(F)F)cc1)c1ccnc2ccccc12` [Example 711]: 204 to 205 °C.
`O=C(Nc1ccc(-n2nc(C(F)(F)F)cc2C(F)(F)F)cc1)c1cnc2ccccc2n1` [Example 712] showed a melting point of 196 °C.
As to `O=C(Nc1ccc(-n2nc(C(F)(F)F)cc2C(F)(F)F)cc1)N1CCOCC1` [Example 726], the melting point was 185 to 186 °C.
On the same count and under the same terms, the value for `Cc1cc(C(F)(F)F)nn1-c1ccc(NC(=O)C2CCCC2)cc1` [Example 780] was 176 to 178 °C.
The same measure, in the same setting: the value for `N#Cc1ccc(Nc2ccc(-n3nc(C(F)(F)F)cc3C(F)(F)F)cc2)cc1` [Example 864] was 247 °C.
Still for that read-out and setting: next, `FC(F)(F)c1cc(C(F)(F)F)n(-c2ccc(Nc3ccncn3)cc2)n1` [Example 886]: 218 to 219 °C; `CSc1cc(-c2ccco2)nn1-c1ccc(NC(=O)c2ccc(Cl)cc2)cc1` [Example 1077]: 176 to 178 °C.
In turn, `C[S+]([O-])c1cc(-c2ccco2)nn1-c1ccc(NC(=O)c2ccc(Cl)cc2)cc1` (stereo not drawn) [Example 1101] displayed a melting point of 110 °C.
Same read-out and setting: the value for `CN(C)Cc1cc(C(F)(F)F)n(-c2ccc(NC(=O)c3ccc(Cl)cc3)cc2)n1` [Example 1128] was 177 to 178 °C; that for `CCc1cc(C(C)C)nn1-c1ccc(Nc2ncccc2C#N)cc1` [Example 1160] was 123 to 124 °C; that for `CCc1cc(C(C)C)nn1-c1ccc(NC(=O)c2c(C)noc2C)cc1` [Example 1200] was 173 to 175 °C.
Still for that read-out and setting: next, `CCc1cc(C(C)C)nn1-c1ccc(NCc2c(C)noc2C)cc1` [Example 1201]: 87 to 88 °C.
For the molecule `CCc1cc(C(F)(F)F)nn1-c1ccc(NC(=O)c2c(C)ncn2C)cc1` [Example 1207], the melting point was in the range of 179 to 182 °C.
Same read-out and setting: next, `CCc1cc(C(F)(F)F)nn1-c1ccc(NCc2sccc2C)cc1` [Example 1247]: 93 to 95 °C; `CCc1cc(C(F)(F)F)nn1-c1ccc(NCc2ccc(C)s2)cc1` [Example 1248]: 87 to 89 °C.
Same read-out and setting: next, `CCc1cc(C(C)C)nn1-c1ccc(NC(=O)c2cnccn2)cc1` [Example 1312]: 169 to 171 °C.
